Values after ≈ are worked out from the molar mass of the structure shown. Where two headings read alike, the source gives them in different places. Blank lines part the entries; values can stand above or below the compound they belong to.
Key:
Experiment in all cases: Minimal growth inhibitory concentration (MIC), serial dilution in broth, agent alone
Assay type in all cases: cell-based
[1] = tested on: Streptococcus mutans ATCC 25175; details: for MIC in w/w%: chlorhexidine as free base concentration; for MIC: Streptococcus mutans, ATCC25175, 48 h, read-out: MIC (micro g/ml)
Protocol: (§1) MINIMAL GROWTH INHIBITORY CONCENTRATION
(§2) The minimal inhibitory concentration (MIC) of the test compound is the minimum concentration of compound required to inhibit growth of the test organism. The MIC is determined by serially diluting the test solution through tubes of sterile broth. The tubes are inoculated and incubated at 37°C for 48 hours. At the end of the incubation time, growth is checked macroscopically. The lowest concentration of test compound to inhibit growth is the MIC.

[2] = tested on: Candida albicans ATCC 18804; details: Experiment 7, C. Albicans, chlorhexidine as free base concentration
Protocol: as §1, §2

[3] = tested on: Actinomyces viscosus T14V; details: Experiment 6, A. viscosus, chlorhexidine as free base concentration
Protocol: as §1, §2

[4] = tested on: Streptococcus sanguis ATCC 19558; details: Experiment 5, S. sanguis, chlorhexidine as free base concentration
Protocol: as §1, §2

[5] = Experiments A-D, agent alone, 37°C, 48 hours

Compound: [H]/N=C(\N/C(=N/[H])NCCCCCCNC(=N)NC(=N)Nc1ccc(Cl)cc1)Nc1ccc(Cl)cc1 [Chlorhexidine, 1,6-di(p-chlorophenylbiguanido)hexane]
MIC in w/w% ([1]; Experiment 1, agent alone, 37°C, 48 hours): 2.2x10^-5 w/w% | MIC in w/w% ([1]; Experiment 2, agent alone, 37°C, 48 hours): 2.2x10^-5 w/w% | MIC in w/w% ([1]; Experiment 3, agent alone, 37°C, 48 hours): 2.8x10^-5 w/w% | MIC in w/w% ([1]; Experiment 4, agent alone, 37°C, 48 hours): 2.25x10^-5 w/w% | MIC [1, 5]: 0.25 µg/mL (≈ 0.495 µM) | MIC (w/w%) [2]: 3.5x10^-4 w/w% | MIC (w/w%) [3]: 4.4x10^-5 w/w% | MIC (w/w%) [4]: 3.4x10^-4 w/w%

MIC [1, 5]: 58 µg/mL (≈ 376 µM)
Compound: CC12CCC(CC1)C(C)(C)O2 [Eucalyptol]

Compound: CC1CCC(C(C)C)C(O)C1 (stereo not drawn) [Menthol]
MIC [1]: 30 µg/mL (≈ 192 µM)

Compound: COC(=O)c1ccccc1O [Methyl Salicylate]
MIC [1]: 35 µg/mL (≈ 230 µM)

MIC [1, 5]: 80 µg/mL (≈ 533 µM)
Compound: Cc1ccc(C(C)C)c(O)c1 [Thymol]

— patent EP0244363A1, “Composition and method to inhibit the growth of organisms by the use of bis-biguanido hexanes and essential oil mixture combinations” (WARNER-LAMBERT COMPANY, priority 1986, dated 1987)
